# Measurements reported in the supplement of paper PMC11061612.
# How the values were obtained:
# [1] = compound: COc1cc([C@@H]2c3cc4c(cc3[C@@H](O[C@@H]3O[C@@H]5CO[C@@H](C)O[C@H]5[C@H](O)[C@H]3O)[C@H]3COC(=O)[C@H]23)OCO4)cc(OC)c1O [Etoposide]; settings: max 10 µM
# In short: (§1)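 Cancer cell lines were seeded in 1536-well plates in 7.5 μl DMEM/F12 or RPMI with 10% FBS, held 24 hours at 37°C and 5% CO2, then dosed for 72 hours (final DMSO typically 0.2%). Viability was read by CellTiter-Glo 2.0 luminescence and scaled between blank-well and DMSO-well means. The single-agent IC50 comes from dose responses fitted to a two-parameter logistic curve with a non-linear mixed effects model.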
# [2] = compound: C1CC(C1)(C(=O)[O-])C(=O)[O-].N.N.[Pt+2] [Carboplatin]; settings: max 10 µM
# In short: as §1
# [3] = compound: NC1(c2ccc(-c3nc4ccn5c(=O)[nH]nc5c4cc3-c3ccccc3)cc2)CCC1 [MK-2206]; settings: max 10 µM
# In short: as §1
# [4] = compound: Cn1cnc2c(F)c(Nc3ccc(Br)cc3Cl)c(C(=O)NOCCO)cc21 [Selumetinib]; settings: max 10 µM
# In short: as §1
# [5] = compound: CCN(CCO)CCCOc1ccc2c(Nc3cc(CC(=O)Nc4cccc(F)c4)[nH]n3)ncnc2c1 [AZD2811]; settings: max 1 µM
# In short: as §1
# [6] = compound: CC1(C)CCC(CN2CCN(c3ccc(C(=O)NS(=O)(=O)c4ccc(NCC5CCOCC5)c([N+](=O)[O-])c4)c(Oc4cnc5[nH]ccc5c4)c3)CC2)=C(c2ccc(Cl)cc2)C1 [Venetoclax]; settings: max 1 µM
# In short: as §1
# [7] = compound: COc1cccc(OCCCN)c1-c1cc(Nc2cnc(C#N)cn2)n[nH]1 [Prexasertib]; settings: max 1 µM
# In short: as §1
# [8] = compound: CN(CC[C@H](CSC1=CC=CC=C1)NC2=C(C=C(C=C2)S(=O)(=O)NC(=O)C3=CC=C(C=C3)N4CCC(CC4)[C@H](C5=CC=CC=C5C6=CC=C(C=C6)Cl)O)S(=O)(=O)C(F)(F)F)CCO [AZD4320]; settings: max 1 µM
# In short: as §1
# [9] = compound: Cc1c2c(nn1C)CSCc1cc(n(C)n1)CSc1cc(c3ccccc3c1)OCCCc1c(C(=O)O)n(C)c3c-2c(Cl)ccc13 [AZD5991]; settings: max 1 µM
# In short: as §1
# [10] = compound: C[C@@H](Nc1cc(F)cc(F)c1)c1cc(C(=O)N(C)C)cc2c(=O)cc(N3CCOCC3)oc12 [AZD8186]; settings: max 10 µM
# In short: as §1
# [11] = compound: CC1=C(C(=CC=C1)Cl)NC(=O)C2=CN=C(S2)NC3=CC(=NC(=N3)C)N4CCN(CC4)CCO [Dasatinib]; settings: max 2 µM
# In short: as §1
# [12] = compound: Cc1nc(-c2cn3c(n2)-c2ccc(-c4cnn(C(C)(C)C(N)=O)c4)cc2OCC3)n(C(C)C)n1 [Taselisib]; settings: max 10 µM
# In short: as §1
# [13] = compound: C=CCn1c(=O)c2cnc(Nc3ccc(N4CCN(C)CC4)cc3)nc2n1-c1cccc(C(C)(C)O)n1 [AZD1775]
# In short: as §1
# [14] = compound: CC(C)n1c(=O)n(C)c2cnc3cc(F)c(-c4ccc(OCCCN5CCCCC5)nc4)cc3c21 [AZD1390]; settings: max 0.3 µM
# In short: as §1
# [15] = compound: N#Cc1cnc(Nc2cc(NC[C@H]3CNCCO3)c(C(F)(F)F)cn2)cn1 [SRA737]; settings: max 10 µM
# In short: as §1
# [16] = compound: C1CN(CCC1(C(=O)N[C@@H](CCO)C2=CC=C(C=C2)Cl)N)C3=NC=NC4=C3C=CN4 [AZD5363]; settings: max 10 µM
# In short: as §1
# [17] = compound: COc1cccc2c1C(=O)c1c(O)c3c(c(O)c1C2=O)C[C@@](O)(C(=O)CO)C[C@@H]3O[C@H]1C[C@H](N)[C@H](O)[C@H](C)O1 [Doxorubicin]; settings: max 1 µM
# In short: as §1
# [18] = compound: COc1cc2ncnc(Nc3ccc(F)c(Cl)c3)c2cc1OCCCN1CCOCC1 [Gefitinib]; settings: max 10 µM
# In short: as §1
# [19] = compound: COc1cc(Nc2ncc3c(n2)-c2ccc(Cl)cc2C(c2c(F)cccc2OC)=NC3)ccc1C(=O)O [Alisertib]; settings: max 10 µM
# In short: as §1
# [20] = compound: CC1=CN2[C@@H](C1)C=NC3=CC(=C(C=C3C2=O)OC)OCCCCCOC4=C(C=C5C(=C4)N=C[C@@H]6CC(=CN6C5=O)C)OC [SG3199]; settings: max 0.001 µM
# In short: as §1
# [21] = compound: C[C@@H](c1ccc2nccn2c1)n1nnc2ncc(-c3cnn(C)c3)nc21 [Savolitinib]; settings: max 1 µM
# In short: as §1
# [22] = compound: Nc1ccn([C@@H]2O[C@H](CO)[C@@H](O)C2(F)F)c(=O)n1 [Gemcitabine]; settings: max 0.3 µM
# In short: as §1
# [23] = compound: CS(=O)(=O)CCNCc1ccc(-c2ccc3ncnc(Nc4ccc(OCc5cccc(F)c5)c(Cl)c4)c3c2)o1 [Lapatinib]; settings: max 10 µM
# In short: as §1
# [24] = compound: O=c1[nH]cc(F)c(=O)[nH]1 [5-Fluorouracil]; settings: max 20 µM
# In short: as §1
# [25] = compound: CCc1c2c(nc3ccc(O)cc13)-c1cc3c(c(=O)n1C2)COC(=O)[C@]3(O)CC [SN-38]; settings: max 0.3 µM
# In short: as §1
# [26] = compound: CN(C)CCCOc1ccc(-c2ccc3ncc4c(c3c2)n(C2CCOCC2)c(=O)n4C)cn1 [AZD0156]
# In short: as §1
# [27] = compound: C[C@@H]1COCCN1C2=NC(=NC(=C2)C3(CC3)[S@](=N)(=O)C)C4=C5C=CNC5=NC=C4 [AZD6738]; settings: max 10 µM
# In short: as §1
# [28] = compound: CC(=O)c1c(C)c2cnc(Nc3ccc(N4CCNCC4)cn3)nc2n(C2CCCC2)c1=O [Palbociclib]; settings: max 10 µM
# In short: as §1
# [29] = compound: C[C@@H](Oc1cc(-c2cnn(C3CCNCC3)c2)cnc1N)c1c(Cl)ccc(F)c1Cl [Crizotinib]; settings: max 10 µM
# In short: as §1
# [30] = compound: CC(=O)O[C@H]1C(=O)[C@@]2(C)[C@H]([C@H](OC(=O)c3ccccc3)[C@]3(O)C[C@H](OC(=O)[C@H](O)[C@@H](NC(=O)c4ccccc4)c4ccccc4)C(C)=C1C3(C)C)[C@]1(OC(C)=O)CO[C@@H]1C[C@@H]2O [Paclitaxel]; settings: max 3 µM
# In short: as §1
# [31] = compound: COc1nnc2ccc(N3CCC(c4ccc(OCCN5CCN(C)C(=O)[C@H]5C)cc4)CC3)nn12 [AZD5153]; settings: max 1 µM
# In short: as §1
# [32] = compound: O=C(c1cc(Cc2n[nH]c(=O)c3ccccc23)ccc1F)N1CCN(C(=O)C2CC2)CC1 [Olaparib]; settings: max 10 µM
# In short: as §1
# [33] = compound: Cc1cc2ncnn2cc1Nc1ncc2c(n1)n(C1CCOCC1)c(=O)n2C [AZD7648]; settings: max 10 µM
# In short: as §1
# [34] = compound: O=C(Nc1ccc2[nH]nc(-c3ccncc3)c2c1)[C@@H]1CCN(CC(=O)N2CCN(c3ccc(-c4ncccn4)cc3)CC2)C1; settings: max 5 µM
# In short: as §1
# [35] = compound: CC(=O)Nc1cccc(-n2c(=O)n(C3CC3)c(=O)c3c(Nc4ccc(I)cc4F)n(C)c(=O)c(C)c32)c1 [Trametinib]; settings: max 1 µM
# In short: as §1
Cell Line,"IC50, cell viability 72 h [1] [nM]","IC50, cell viability 72 h [2] [nM]","IC50, cell viability 72 h [3] [nM]","IC50, cell viability 72 h [4] [nM]","IC50, cell viability 72 h [5] [nM]","IC50, cell viability 72 h [6] [nM]","IC50, cell viability 72 h [7] [nM]","IC50, cell viability 72 h [8] [nM]","IC50, cell viability 72 h [9] [nM]","IC50, cell viability 72 h [10] [nM]","IC50, cell viability 72 h [11] [nM]","IC50, cell viability 72 h [12] [nM]","IC50, cell viability 72 h ([13]; max 3 µM) [nM]","IC50, cell viability 72 h [14] [nM]","IC50, cell viability 72 h [15] [nM]","IC50, cell viability 72 h [16] [nM]","IC50, cell viability 72 h [17] [nM]","IC50, cell viability 72 h [18] [nM]","IC50, cell viability 72 h [19] [nM]","IC50, cell viability 72 h [20] [nM]","IC50, cell viability 72 h [21] [nM]","IC50, cell viability 72 h [22] [nM]","IC50, cell viability 72 h [23] [nM]","IC50, cell viability 72 h [24] [nM]","IC50, cell viability 72 h [25] [nM]","IC50, cell viability 72 h ([26]; max 3 µM) [nM]","IC50, cell viability 72 h [27] [nM]","IC50, cell viability 72 h [28] [nM]","IC50, cell viability 72 h [29] [nM]","IC50, cell viability 72 h [30] [nM]","IC50, cell viability 72 h [31] [nM]","IC50, cell viability 72 h [32] [nM]","IC50, cell viability 72 h [33] [nM]","IC50, cell viability 72 h [34] [nM]","IC50, cell viability 72 h [35] [nM]","IC50, cell viability 72 h ([13]; max 1 µM) [nM]","IC50, cell viability 72 h ([26]; max 1 µM) [nM]"
SK-PN-DW (Other Solid Carcinomas),1530,> 10000,> 10000,> 10000,191,757,5.83,> 1000,70,> 10000,> 2000,4420,1590,> 300,986,4780,199,> 10000,119,> 1,> 1000,> 300,> 10000,5010,4.05,> 3000,558,> 10000,4410,11,562,> 10000,> 10000,> 5000,> 1000,,
TE-8 (Esophageal Squamous Cell Carcinoma),> 10000,> 10000,> 10000,> 10000,> 1000,> 1000,24.3,> 1000,> 1000,> 10000,362,2650,,> 300,> 10000,> 10000,> 1000,> 10000,5140,> 1,> 1000,> 300,> 10000,> 20000,169,,4150,> 10000,> 10000,109,> 1000,> 10000,> 10000,3840,633,503,> 1000
VAL (B-Cell Non-Hodgkin's Lymphoma),261,> 10000,1870,> 10000,141,31.5,6.12,36.5,446,2450,91.9,2280,416,> 300,1470,5130,28,> 10000,60.6,> 1,> 1000,8.94,> 10000,> 20000,1.77,> 3000,1030,2660,4620,57.3,61.8,8570,8520,> 5000,> 1000,,
